The test concerns the target T1, […]F508-CFTR (Homo sapiens, UniProt P13569, DEL508-508).
T1 construct: expressed in transfected cells
Description: Assay results of Table 3: ΔF508-CFTR modulation, membrane potential optical assay (assay format not stated). As to conditions: NIH3T3 mouse fibroblasts stably expressing […]F508-CFTR (optical assays); for Efficacy: efficacy range; for EC50: potency range. Format: cell-based. An excerpt: A. Membrane Potential Optical Methods for Assaying […]F508-CFTR Modulation Properties of Compounds
The optical membrane potential assay utilized voltage-sensitive FRET sensors described by Gonzalez and Tsien (See, Gonzalez, J. E. and R. Y. Tsien (1995) “Voltage sensing by fluorescence resonance energy transfer in single cells” Biophys J 69(4): 1272-80, and Gonzalez, J. E. and R. Y. Tsien (1997) “Improved indicators of cell membrane potential that use fluorescence resonance energy transfer” Chem Biol 4(4): 269-77) in combination with instrumentation for measuring fluorescence changes such as the Voltage/Ion Probe Reader (VIPR) (See, Gonzalez, J. E., K. Oades, et al. (1999) “Cell-based assays and instrumentation for screening ion-channel targets” Drug Discov Today 4(9): 431-439).
These voltage sensitive assays are based on the change in fluorescence resonant energy transfer (FRET) between the membrane-soluble, voltage-sensitive dye, DiSBAC2(3), and a fluorescent phospholipid, CC2-DMPE, which is attached to the outer leaflet of the plasma membrane and acts as a FRET donor. Changes in membrane potential (Vm) cause the negatively charged DiSBAC2(3) to redistribute across the plasma membrane and the amount of energy transfer from CC2-DMPE changes accordingly. The changes in fluorescence emission were monitored using VIPR™ II, which is an integrated liquid handler and fluorescent detector designed to conduct cell-based screens in 96- or 384-well microtiter plates.
To identify small molecules that correct the trafficking defect associated with ΔF508-CFTR; a single-addition HTS assay format was developed. The cells were incubated in serum-free medium for 16 hrs at 37° C. in the presence or absence (negative control) of test compound. As a positive control, cells plated in 384-well plates were incubated for 16 hrs at 27° C. to “temperature-correct” […]F508-CFTR. The cells were subsequently rinsed 3× with Krebs Ringers solution and loaded with the voltage-sensitive dyes. To activate […]F508-CFTR, 10 µM forskolin and the CFTR potentiator, genistein (20 µM), were added along with Cl^−-free medium to each well. The addition of Cl^−-free medium promoted Cl^− efflux in response to […]F508-CFTR activation and the resulting membrane depolarization was optically monitored using the FRET-based voltage-sensor dyes.
To identify potentiators of […]F508-CFTR, a double-addition HTS assay format was developed. During the first addition, a Cl^−-free medium with or without test compound was added to each well. After 22 sec, a second addition of Cl^−-free medium containing 2-10 µM forskolin was added to activate […]F508-CFTR. The extracellular Cl^− concentration following both additions was 28 mM, which promoted Cl^− efflux in response to […]F508-CFTR activation and the resulting membrane depolarization was optically monitored using the FRET-based voltage-sensor dyes.
Bath Solution #1: (in mM) NaCl 160, KCl 4.5, CaCl2 2, MgCl2 1, HEPES 10, pH 7.4 with NaOH.
Chloride-free bath solution: Chloride salts in Bath Solution #1 are substituted with gluconate salts.
CC2-DMPE: Prepared as a 10 mM stock solution in DMSO and stored at −20° C.
DiSBAC2(3): Prepared as a 10 mM stock in DMSO and stored at −20° C.
NIH3T3 mouse fibroblasts stably expressing […]F508-CFTR are used for optical measurements of membrane potential. The cells are maintained at 37° C. in 5% CO2 and 90% humidity in Dulbecco's modified Eagle's medium supplemented with 2 mM glutamine, 10% fetal bovine serum, 1× NEAA, […]-ME, 1× pen/strep, and 25 mM HEPES in 175 cm^2 culture flasks. For all optical assays, the cells were seeded at 30,000/well in 384-well matrigel-coated plates and cultured for 2 hrs at 37° C. before culturing at 27° C. for 24 hrs for the potentiator assay. For the correction assays, the cells are cultured at 27° C. or 37° C. with and without compounds for 16-24 hoursB.

Drawing on patent US8822451B2, “Modulators of ATP-binding cassette transporters” (Vertex Pharmaceuticals Incorporated, priority 2005, dated 2014), this text covers Efficacy and EC50 for 37 compounds.

Structures are written as SMILES.

T1 sequence (P13569 with tags, fused parts or gaps DEL508-508): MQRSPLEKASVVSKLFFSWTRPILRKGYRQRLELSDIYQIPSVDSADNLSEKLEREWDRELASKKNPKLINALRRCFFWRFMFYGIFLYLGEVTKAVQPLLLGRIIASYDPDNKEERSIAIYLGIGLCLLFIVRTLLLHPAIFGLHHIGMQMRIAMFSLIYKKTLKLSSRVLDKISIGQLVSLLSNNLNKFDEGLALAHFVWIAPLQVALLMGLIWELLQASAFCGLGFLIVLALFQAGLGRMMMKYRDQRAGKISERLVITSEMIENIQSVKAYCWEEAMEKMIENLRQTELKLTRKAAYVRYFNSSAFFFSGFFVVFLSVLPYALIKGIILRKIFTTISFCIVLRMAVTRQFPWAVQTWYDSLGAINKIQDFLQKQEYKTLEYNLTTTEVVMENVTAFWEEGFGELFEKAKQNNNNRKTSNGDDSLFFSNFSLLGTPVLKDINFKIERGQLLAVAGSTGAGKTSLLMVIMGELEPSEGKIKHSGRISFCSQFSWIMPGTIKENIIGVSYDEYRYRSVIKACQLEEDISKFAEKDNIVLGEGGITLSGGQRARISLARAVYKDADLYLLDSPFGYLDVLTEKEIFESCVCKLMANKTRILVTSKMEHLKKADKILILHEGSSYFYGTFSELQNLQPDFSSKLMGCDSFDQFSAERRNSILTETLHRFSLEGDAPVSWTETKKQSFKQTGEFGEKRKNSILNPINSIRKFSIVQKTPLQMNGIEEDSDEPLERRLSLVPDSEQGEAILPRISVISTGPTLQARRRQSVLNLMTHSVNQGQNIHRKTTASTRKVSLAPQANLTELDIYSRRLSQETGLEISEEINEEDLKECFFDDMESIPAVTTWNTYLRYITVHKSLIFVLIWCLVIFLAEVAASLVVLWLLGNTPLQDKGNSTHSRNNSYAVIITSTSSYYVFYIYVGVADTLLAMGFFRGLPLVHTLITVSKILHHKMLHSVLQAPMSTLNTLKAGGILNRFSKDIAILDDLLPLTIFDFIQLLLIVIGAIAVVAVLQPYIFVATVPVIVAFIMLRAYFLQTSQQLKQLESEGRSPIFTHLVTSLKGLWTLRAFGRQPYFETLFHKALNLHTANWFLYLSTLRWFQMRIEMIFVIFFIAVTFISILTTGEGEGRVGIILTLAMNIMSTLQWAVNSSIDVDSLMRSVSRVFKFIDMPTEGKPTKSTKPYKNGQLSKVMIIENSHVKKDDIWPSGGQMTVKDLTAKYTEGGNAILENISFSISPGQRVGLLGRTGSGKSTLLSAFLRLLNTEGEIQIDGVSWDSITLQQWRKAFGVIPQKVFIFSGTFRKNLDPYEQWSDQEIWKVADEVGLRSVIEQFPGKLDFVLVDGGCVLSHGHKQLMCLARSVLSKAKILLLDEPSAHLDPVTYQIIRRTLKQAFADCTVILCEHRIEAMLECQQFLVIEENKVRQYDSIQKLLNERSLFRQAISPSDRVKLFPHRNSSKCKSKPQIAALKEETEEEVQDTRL

As for `COc1cccc(-c2cc(C(N)=O)nc(N(C)C)n2)c1` [Compound 77], the Efficacy entry was “+ (+ corresponds to Efficacy less than 50)” and the EC50 was greater than 5 µM.

On to `COc1ccc(-c2cc(C(N)=O)nc(N3CCCCCC3)n2)cc1` [Compound 78], for which the Efficacy result is “++ (++ corresponds to Efficacy between 100 and 50)”; the EC50 lay in the range of 1 to 5 µM.

Consider `NC(=O)c1cc(-c2ccccc2)nc(N2CC=CC2)n1` [Compound 79], for which the Efficacy result is listed as “+++ (+++ corresponds to Efficacy greater than 100)” and the EC50 lay within 1 to 5 µM.

In the case of `COc1cccc(-c2cc(C(N)=O)nc(NCC3CCCO3)n2)c1` (centres unmarked) [Compound 80], the Efficacy result is reported as “+ (+ corresponds to Efficacy less than 50)” and the EC50 is greater than 5 µM.

For the compound `CCN(CC)c1nc(C(N)=O)cc(-c2cc3ccccc3s2)n1` [Compound 81], the Efficacy result was “+++ (+++ corresponds to Efficacy greater than 100)” and the EC50 fell in the range of 1 to 5 µM.

Consider `CCN(CC)c1nc(C(N)=O)cc(-c2ccc(OC)c(OC)c2)n1` [Compound 82], for which the Efficacy result is “++ (++ corresponds to Efficacy between 100 and 50)”; the EC50 was less than 1 µM.

In the case of `CN(CC#N)c1nc(C(N)=O)cc(-c2ccccc2)n1` [Compound 83], the Efficacy result is reported as “+ (+ corresponds to Efficacy less than 50)” and the EC50 was greater than 5 µM.

Consider `CCN(CC)c1nc(C(N)=O)cc(-c2cccc(OC(F)(F)F)c2)n1` [Compound 84], for which the Efficacy entry was “++ (++ corresponds to Efficacy between 100 and 50)”; the EC50 is less than 1 µM.

In the case of `CCN(CC)c1nc(C(N)=O)cc(-c2cccc(C(=O)OC(C)C)c2)n1` [Compound 85], the Efficacy entry was “++ (++ corresponds to Efficacy between 100 and 50)”; the EC50 was less than 1 µM.

As to `NC(=O)c1cc(-c2ccccc2)nc(N2CCCCCCC2)n1` [Compound 86], the Efficacy result is “++ (++ corresponds to Efficacy between 100 and 50)”; the EC50 was less than 1 µM.

`CCCN(CC1CC1)c1nc(C(N)=O)cc(-c2ccccc2)n1` [Compound 87]: the Efficacy result is “++ (++ corresponds to Efficacy between 100 and 50)”; the EC50 lay in the range of 1 to 5 µM.

As to `COCCCNc1nc(C(N)=O)cc(-c2cccc(OC)c2)n1` [Compound 88], the Efficacy entry is “+ (+ corresponds to Efficacy less than 50)” and the EC50 was greater than 5 µM.

As for `CCCN(CC1CC1)c1nc(C(N)=O)cc(-c2cccc(OC)c2)n1` [Compound 89], the Efficacy result was “+++ (+++ corresponds to Efficacy greater than 100)” and the EC50 lay in the range of 1 to 5 µM.

On to `COc1ccccc1-c1cc(C(N)=O)nc(N(CCO)CCO)n1` [Compound 90], for which the Efficacy entry is “+ (+ corresponds to Efficacy less than 50)” and the EC50 is greater than 5 µM.

In the case of `CCNC(=O)c1cc(-c2ccccc2)nc(N(CC)CC)n1` [Compound 91], the Efficacy entry was “+++ (+++ corresponds to Efficacy greater than 100)” and the EC50 is 1 to 5 µM.

On to `NC(=O)c1cc(-c2ccccc2)nc(N(Cc2ccccc2)Cc2ccccc2)n1` [Compound 92], for which the Efficacy entry is “++ (++ corresponds to Efficacy between 100 and 50)”; the concentration giving a half-maximal response (EC50) was 1 to 5 µM.

On to `O=C(c1cc(-c2ccccc2)nc(N2CC=CC2)n1)N1CC=CC1` [Compound 93], for which the Efficacy entry is “++ (++ corresponds to Efficacy between 100 and 50)”; the EC50 was greater than 5 µM.

With `CCN(CC)c1nc(C(N)=O)cc(-c2ccccc2F)n1` [Compound 94], the Efficacy entry is given as “+++ (+++ corresponds to Efficacy greater than 100)” and the EC50 lay within 1 to 5 µM.

Turning to `NC(=O)c1cc(-c2cccc(Cl)c2Cl)nc(N2CCCCC2)n1` [Compound 95], the Efficacy entry is “++ (++ corresponds to Efficacy between 100 and 50)”; the EC50 was 1 to 5 µM.

In the case of `NC(=O)c1cc(-c2ccccc2)nc(N2CCC(O)(c3cccc(C(F)(F)F)c3)CC2)n1` [Compound 96], the Efficacy entry is “++ (++ corresponds to Efficacy between 100 and 50)”; the EC50 was greater than 5 µM.

Consider `CCN(CC)c1nc(C(=O)NCc2ccccc2)cc(-c2ccccc2)n1` [Compound 97], for which the Efficacy entry is “++ (++ corresponds to Efficacy between 100 and 50)”; the EC50 is greater than 5 µM.

In the case of `CCN(CC)c1nc(C(N)=O)cc(-c2cccc(Cl)c2)n1` [Compound 98], the Efficacy entry is reported as “+++ (+++ corresponds to Efficacy greater than 100)” and the EC50 is less than 1 µM.

With `CCOC(=O)C1CCN(c2nc(C(N)=O)cc(-c3ccccc3)n2)CC1` [Compound 99], the Efficacy result is recorded as “+ (+ corresponds to Efficacy less than 50)” and the EC50 was in the range of 1 to 5 µM.

Consider `CCCN(CCO)c1nc(C(N)=O)cc(-c2ccccc2)n1` [Compound 100], for which the Efficacy result was “++ (++ corresponds to Efficacy between 100 and 50)”; the EC50 was 1 to 5 µM.

With `CN(CC(O)c1ccccc1)c1nc(C(N)=O)cc(-c2ccccc2)n1` (centres unmarked) [Compound 101], the Efficacy result is “+++ (+++ corresponds to Efficacy greater than 100)” and the half-maximal effective concentration (EC50) is greater than 5 µM.

On to `CCNc1nc(C(N)=O)cc(-c2ccc(OC)cc2)n1` [Compound 102], for which the Efficacy entry was “++ (++ corresponds to Efficacy between 100 and 50)”; the concentration giving a half-maximal response (EC50) was greater than 5 µM.

In the case of `CNC(=O)c1cc(-c2ccccc2)nc(NC)n1` [Compound 103], the Efficacy entry is “+ (+ corresponds to Efficacy less than 50)” and the EC50 was less than 1 µM.

Turning to `CC(C)CCN(CCC(C)C)c1nc(C(N)=O)cc(-c2ccccc2)n1` [Compound 104], the Efficacy result is recorded as “+ (+ corresponds to Efficacy less than 50)” and the EC50 was in the range of 1 to 5 µM.

For the compound `COc1cccc(-c2cc(C(N)=O)nc(N3CCCCC3)n2)c1F` [Compound 105], the Efficacy result is “+++ (+++ corresponds to Efficacy greater than 100)” and the EC50 is greater than 5 µM.

Consider `NC(=O)c1cc(-c2ccc(Cl)cc2Cl)nc(N2CCCCC2)n1` [Compound 106], for which the Efficacy entry was “+++ (+++ corresponds to Efficacy greater than 100)” and the EC50 fell in the range of 1 to 5 µM.

For `CCN(CC)c1nc(C(N)=O)cc(-c2ccc(F)cc2F)n1` [Compound 107], the Efficacy result was “++ (++ corresponds to Efficacy between 100 and 50)”; the 50% effective concentration (EC50) is less than 1 µM.

Regarding `CCN(CC)c1nc(C(N)=O)cc(-c2c(OC)cccc2OC)n1` [Compound 108], the Efficacy result was “++ (++ corresponds to Efficacy between 100 and 50)”; the EC50 was greater than 5 µM.

On to `CCN(CC)c1nc(C(N)=O)cc(-c2ccc(OC)cc2)n1` [Compound 109], for which the Efficacy entry is “+++ (+++ corresponds to Efficacy greater than 100)” and the EC50 was less than 1 µM.

Consider `CCN(CC)c1nc(C(N)=O)cc(-c2ccccc2OC)n1` [Compound 110], for which the Efficacy entry is “+++ (+++ corresponds to Efficacy greater than 100)” and the EC50 is less than 1 µM.

On to `N#Cc1cccc(-c2cc(C(N)=O)nc(N3CCCCC3)n2)c1` [Compound 111], for which the Efficacy result was “++ (++ corresponds to Efficacy between 100 and 50)”; the EC50 was greater than 5 µM.

On to `NC(=O)c1cc(-c2ccccc2)nc(NC2CCCC2)n1` [Compound 112], for which the Efficacy entry is given as “+ (+ corresponds to Efficacy less than 50)” and the EC50 was greater than 5 µM.

Regarding `CC1CC(C)CN(c2nc(C(N)=O)cc(-c3ccccc3)n2)C1` (centres unmarked) [Compound 113], the Efficacy entry is “++ (++ corresponds to Efficacy between 100 and 50)”; the EC50 was 1 to 5 µM.
